Measurements as given in patent US20100291086A1, “USE OF ESTROGEN AND ANDROGEN BINDING PROTEINS IN METHODS AND COMPOSITIONS FOR TREATING GYNAECOLOGICAL CANCERS” (priority 2007, published 2010).

Assays:
[1] = women, same study; cited from earlier work
invasive breast cancer = conditions: women; cited from earlier work
LNCaP cells = assay: In vitro growth proliferation study, calcein uptake assay; format: cell-based, human; conditions: nilutamide 0.1 μM, 120 hours
Procedure: The effects of the polypeptide on the growth and proliferation of the cells was then assessed. […] In addition, LNCaP cells were also cultured in the presence of the non-steroidal antiandrogen nilutamide The human prostate cancer cell line, LNCaP was obtained from American Type Tissue Collection (ATCC) and was routinely cultured in growth medium containing phenol red RPMI 1640 (Invitrogen, Auckland, New Zealand) supplemented with 10% fetal bovine serum (FBS, GIBCO) and 1% antibiotic/antimycotic mixture (Invitrogen, Auckland, New Zealand). Cells were maintained at 37° C. in 5% CO2. […] In addition as control, 6 wells were treated with the nonsteroidal antiandrogen nilutamide (0.1 μM) as well as 6 wells with 10% charcoal stripped serum, to simulate steroid free conditions. After 120 hours in culture, cells were washed once with PBS and labelled with calcein ([…], Molecular Probes, Oregon, USA) at 1 mM final concentration in PBS. Calcein positive cells were detected using a FLUOstar OPTIMA plate reader (BMG Labtech, Victoria, Australia). Experiments were performed in 6 replicates for each treatment condition. Data are presented as mean±SEM unless otherwise indicated.

breast cancer = conditions: adjuvant tamoxifen for about 5 years, women with cancers expressing the estrogen receptor; cited from earlier work

Compound: O=C(c1ccc(OCCN2CCCCC2)cc1)c1c(-c2ccc(O)cc2)sc2cc(O)ccc12 [Raloxifene]
- increase of risk of fatal stroke [1]: 49%
- reduction of risk of invasive breast cancer (invasive breast cancer): 44%

Compound: CC1(C)NC(=O)N(c2ccc([N+](=O)[O-])c(C(F)(F)F)c2)C1=O [nilutamide]
- reduction of prostate cancer cell proliferation (LNCaP cells): 80%

Compound: CC/C(=C(\c1ccccc1)c1ccc(OCCN(C)C)cc1)c1ccccc1 [tamoxifen]
- reduction of annual breast cancer death rate (breast cancer): 31%
